# Data: patent US10654917B2, “Antibody molecules and peptide delivery systems for use in alzheimer's disease and related disorders” (TECHNOPHAGE, INVESTIGAÇĀO E DESENVOLVIMENTO EM …, priority 2015, dated 2020)
# Where two headings read alike, the source gives them in different places.
# Key:
# [1] = Partition coefficient (log Po/w) of radiopeptides; type: physicochemical
# Description: Table 7 lists each peptide's name, isoelectric point (PI), charge (number of positive residues), calculated mass (in Da), and ion found; as well as the name, calculated mass, and found ion for the corresponding conjugate; and also retention times in HPLC and the partition coefficient (log Po/w). These values allowed the determination of the hydrophilic nature of peptides, where pepH1 and pepH4 were identified as the most hydrophilic peptides.
# [2] = Biodistribution of technetium-labelled peptides; type: in vivo, CD1 mice; conditions: iv, 80 ug/mouse, total radioactivity, 80 μg/mouse
# Procedure: To evaluate the capacity to cross the BBB in vivo, the selected peptides, pepH1 and pepH3, were analyzed for biodistribution in CD1 mice. The peptides were labelled with technetium at a final concentration of 8.5×10^−5 M and diluted in PBS. CD1 mice were injected (iv injection, tail vein). The mice were sacrificed by cervical dislocation after 5 and 60 minutes of incubation. The tissues of interest were dissected and washed to remove excess blood, weighed, and measured for radioactivity. Technetium radioactivity of the different peptides was measured for different organs.
# Initial results are presented in Table 11, where “% I.A. refers to the “% injected activity”, that is, the amount of radioactivity measured in a given organ compared to the total originally injected.
# The biodistribution studies were repeated, using higher doses of each peptide, specifically, a one hundred fold increase, as well as using PepH2 as a negative control, and allowing incubation for 2 minutes and 60 minutes. Tissue biodistribution profile in percentage of injected radiopeptide activity per gram of tissue/organ was measured and results are presented in Table 12.
smiles,measurement,setting,value
"CSCC[C@H](NC(=O)[C@H](Cc1ccccc1)NC(=O)[C@H](CC(C)C)NC(=O)[C@H](CCCCN)NC(=O)CCCN(CCN)CCn1nc(C)c(CC(=O)O)c1C)C(=O)N[C@@H](C)C(=O)N[C@@H](CC(C)C)C(=O)N[C@H](C(=O)N[C@@H](C)C(=O)N[C@@H](Cc1ccccc1)C(=O)N[C@@H](CC(C)C)C(=O)N[C@@H](CCCNC(=N)N)C(=O)N[C@@H](Cc1ccccc1)C(=O)N[C@@H](CC(C)C)C(=O)N[C@H](C(=O)O)[C@@H](C)O)C(C)C [^99mTc(CO)3-Pz^1-pepH2, metal not drawn]",log Po/w of radiopeptides,[1],0.65 ± 0.13
same,tissue uptake at 2 min,"[2]; CD1, blood, read-out: injected activity in Blood",8.9 ± 0.6 %ID/g
same,tissue uptake at 1 h,"[2]; CD1, blood, 1 hour, read-out: injected activity in Blood",3.8 ± 0.2 %ID/g
same,tissue uptake at 2 min,"[2]; CD1, bone, read-out: injected activity in Bone",1.6 ± 0.1 %ID/g
same,tissue uptake at 1 h,"[2]; CD1, bone, 1 hour, read-out: injected activity in Bone",1.4 ± 0.1 %ID/g
same,tissue uptake at 2 min,"[2]; CD1, brain, read-out: injected activity in Brain",0.37 ± 0.04 %ID/g
same,tissue uptake at 1 h,"[2]; CD1, brain, 1 hour, read-out: injected activity in Brain",0.2 ± 0.1 %ID/g
same,tissue uptake at 2 min,"[2]; CD1, heart, read-out: injected activity in Heart",3.45 ± 0.02 %ID/g
same,tissue uptake at 1 h,"[2]; CD1, heart, 1 hour, read-out: injected activity in Heart",1.2 ± 0.2 %ID/g
same,dose excreted at 1 h,"[2]; CD1, in vivo, 1 hour, read-out: Excretion",12.7 ± 4.2%
same,tissue uptake at 2 min,"[2]; CD1, intestine, read-out: injected activity in Intestine",0.5 ± 0.1 %ID/g
same,tissue uptake at 1 h,"[2]; CD1, intestine, 1 hour, read-out: injected activity in Intestine",1.64 ± 0.07 %ID/g
same,tissue uptake at 2 min,"[2]; CD1, kidney, read-out: injected activity in Kidney",5 ± 1.5 %ID/g
same,tissue uptake at 1 h,"[2]; CD1, kidney, 1 hour, read-out: injected activity in Kidney",3.3 ± 0.8 %ID/g
same,tissue uptake at 2 min,"[2]; CD1, liver, read-out: injected activity in Liver",16.7 ± 1.1 %ID/g
same,tissue uptake at 1 h,"[2]; CD1, liver, 1 hour, read-out: injected activity in Liver",21.7 ± 0.9 %ID/g
same,tissue uptake at 2 min,"[2]; CD1, lung, read-out: injected activity in Lung",126 ± 20 %ID/g
same,tissue uptake at 1 h,"[2]; CD1, lung, 1 hour, read-out: injected activity in Lung",51.4 ± 4.4 %ID/g
same,tissue uptake at 2 min,"[2]; CD1, muscle, read-out: injected activity in Muscle",0.61 ± 0.09 %ID/g
same,tissue uptake at 1 h,"[2]; CD1, muscle, 1 hour, read-out: injected activity in Muscle",0.43 ± 0.03 %ID/g
same,tissue uptake at 2 min,"[2]; CD1, spleen, read-out: injected activity in Spleen",13.6 ± 0.3 %ID/g
same,tissue uptake at 1 h,"[2]; CD1, spleen, 1 hour, read-out: injected activity in Spleen",10.6 ± 0.4 %ID/g
same,tissue uptake at 2 min,"[2]; CD1, stomach, read-out: injected activity in Stomach",2 ± 0.6 %ID/g
same,tissue uptake at 1 h,"[2]; CD1, stomach, 1 hour, read-out: injected activity in Stomach",9.4 ± 0.2 %ID/g
